Test results as given in article PMC9848269, “Investigation of novel alkyl/benzyl (4-sulphamoylphenyl)carbamimidothioates as carbonic anhydrase inhibitors” (Journal of Enzyme Inhibition and Medicinal Chemistry, 2023).
Read-outs that look alike come from different tables or passages of the source.

Tests used:
[1] = target: T1, StCA2 (Salmonella enterica, UniProt O30898); parameters: stopped-flow CO2 hydration assay, phenol red 557 nm, TRIS pH 8.4, recombinant beta-CA, 6 h preincubation; details: inhibitor
T1 construct: gene mig-5; recombinant, obtained in-house; beta-class CA
T1 sequence (O30898 41-246): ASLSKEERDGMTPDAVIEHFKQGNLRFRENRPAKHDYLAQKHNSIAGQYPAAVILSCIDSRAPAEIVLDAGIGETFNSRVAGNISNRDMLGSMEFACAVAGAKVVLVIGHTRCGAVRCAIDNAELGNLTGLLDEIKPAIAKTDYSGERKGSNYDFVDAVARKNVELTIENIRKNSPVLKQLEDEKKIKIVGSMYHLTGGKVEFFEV
Protocol: An applied photophysics stopped-flow instrument has been used for assaying the CA-catalysed CO2 hydration activity. Phenol red (at a concentration of 0.2 mM) was used as indicator, working at the absorbance maximum of 557 nm, with 20 mM Hepes (pH 7.5) as buffer for α-CAs or 20 mM TRIS (pH 8.4) as buffer for β-CAs, and 20 mM Na2SO4 (for maintaining constant the ionic strength), following the initial rates of the CA-catalysed CO2 hydration reaction for a period of 10 – 100 s. The CO2 concentrations ranged from 1.7 to 17 mM for the determination of the kinetic parameters and inhibition constants. […] The uncatalysed rates were determined in the same manner and subtracted from the total observed rates. Stock solutions of inhibitor (0.1 mM) were prepared in distilled – deionised water, and dilutions up to 0.01 nM were done thereafter with the assay buffer. Inhibitor and enzyme solutions were preincubated together for 6 h at room temperature prior to assay in order to allow for the formation of the E – I complex. The inhibition constants were obtained by nonlinear least-squares methods using PRISM 3 and the Cheng–Prusoff equation, as reported earlier[12]^,[13]^,[20]^,[21], and represent the mean from at least three different determinations. All CA isoforms were recombinant ones obtained in-house as reported earlier[22]^,[23] and their concentrations in the assay system ranged between 7.6–12.5 nM.

[2] = target: T2, hCA XIII (Homo sapiens, UniProt Q8N1Q1); assay: biochemical; parameters: stopped-flow CO2 hydration assay, phenol red 557 nm, Hepes pH 7.5, recombinant alpha-CA, 6 h preincubation
T2 construct: gene CA13; recombinant, obtained in-house; cytosolic
Protocol: (§1) An applied photophysics stopped-flow instrument has been used for assaying the CA-catalysed CO2 hydration activity. Phenol red (at a concentration of 0.2 mM) was used as indicator, working at the absorbance maximum of 557 nm, with 20 mM Hepes (pH 7.5) as buffer for α-CAs or 20 mM TRIS (pH 8.4) as buffer for β-CAs, and 20 mM Na2SO4 (for maintaining constant the ionic strength), following the initial rates of the CA-catalysed CO2 hydration reaction for a period of 10 – 100 s. The CO2 concentrations ranged from 1.7 to 17 mM for the determination of the kinetic parameters and inhibition constants. For each inhibitor, at least six traces of the initial 5 – 10% of the reaction have been used for determining the initial velocity. The uncatalysed rates were determined in the same manner and subtracted from the total observed rates. Stock solutions of inhibitor (0.1 mM) were prepared in distilled – deionised water, and dilutions up to 0.01 nM were done thereafter with the assay buffer. Inhibitor and enzyme solutions were preincubated together for 6 h at room temperature prior to assay in order to allow for the formation of the E – I complex. The inhibition constants were obtained by nonlinear least-squares methods using PRISM 3 and the Cheng–Prusoff equation, as reported earlier[12]^,[13]^,[20]^,[21], and represent the mean from at least three different determinations. All CA isoforms were recombinant ones obtained in-house as reported earlier[22]^,[23] and their concentrations in the assay system ranged between 7.6–12.5 nM.

[3] = target: T3, hCA II (Homo sapiens, UniProt P00918); assay: biochemical; parameters: stopped-flow CO2 hydration assay, phenol red 557 nm, Hepes pH 7.5, recombinant alpha-CA, 6 h preincubation
T3 construct: gene CA2; recombinant, obtained in-house; cytosolic
Protocol: as §1

[4] = target: T4, hCA VII (Homo sapiens, UniProt P43166); assay: biochemical; parameters: stopped-flow CO2 hydration assay, phenol red 557 nm, Hepes pH 7.5, recombinant alpha-CA, 6 h preincubation
T4 construct: gene CA7; recombinant, obtained in-house; cytosolic
Protocol: as §1

[5] = target: T5, hCA I (Homo sapiens, UniProt P00915); assay: biochemical; parameters: stopped-flow CO2 hydration assay, phenol red 557 nm, Hepes pH 7.5, recombinant alpha-CA, 6 h preincubation
T5 construct: gene CA1; recombinant, obtained in-house; cytosolic
Protocol: as §1

[6] = target: T3, hCA II; assay: stopped-flow CO2 hydration; format: biochemical
Text: stopped-flow CO2 hydration on hCA II

[7] = target: T5, hCA I; assay: stopped-flow CO2 hydration; format: biochemical
Text: stopped-flow CO2 hydration on hCA I

[8] = target: T4, hCA VII; assay: stopped-flow CO2 hydration; format: biochemical
Text: stopped-flow CO2 hydration on hCA VII

[9] = target: T6, StCA1; assay: stopped-flow CO2 hydration; format: biochemical, Salmonella enterica subsp. enterica serovar Typhimurium; details: 20 mM TRIS pH 8.4, 20 mM Na2SO4, CO2 1.7-17 mM; 6 h preincubation at room temperature
T6 construct: recombinant, obtained in-house; beta-class CA
Text: stopped-flow CO2 hydration on StCA1

[10] = target: T2, hCA XIII; assay: stopped-flow CO2 hydration; format: biochemical
Text: stopped-flow CO2 hydration on hCA XIII

[11] = target: T1, StCA2; assay: stopped-flow CO2 hydration; format: biochemical; details: 20 mM TRIS pH 8.4, 20 mM Na2SO4, CO2 1.7-17 mM; 6 h preincubation at room temperature
Text: stopped-flow CO2 hydration on StCA2

T5 sequence (P00915 2-261): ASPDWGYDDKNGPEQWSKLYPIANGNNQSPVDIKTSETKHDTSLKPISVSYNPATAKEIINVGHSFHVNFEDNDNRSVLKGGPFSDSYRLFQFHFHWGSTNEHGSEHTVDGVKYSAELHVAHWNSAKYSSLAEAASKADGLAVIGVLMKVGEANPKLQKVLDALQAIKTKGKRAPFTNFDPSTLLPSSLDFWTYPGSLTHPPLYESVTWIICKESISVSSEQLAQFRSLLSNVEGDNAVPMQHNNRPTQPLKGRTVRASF
T4 sequence (P43166 whole entry): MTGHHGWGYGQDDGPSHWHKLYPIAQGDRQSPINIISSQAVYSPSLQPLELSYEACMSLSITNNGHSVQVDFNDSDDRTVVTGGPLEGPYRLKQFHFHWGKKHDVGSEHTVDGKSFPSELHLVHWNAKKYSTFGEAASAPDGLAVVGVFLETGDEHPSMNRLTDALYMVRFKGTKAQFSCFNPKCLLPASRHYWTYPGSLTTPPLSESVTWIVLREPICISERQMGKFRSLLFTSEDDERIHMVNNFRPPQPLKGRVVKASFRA
T2 sequence (Q8N1Q1 whole entry): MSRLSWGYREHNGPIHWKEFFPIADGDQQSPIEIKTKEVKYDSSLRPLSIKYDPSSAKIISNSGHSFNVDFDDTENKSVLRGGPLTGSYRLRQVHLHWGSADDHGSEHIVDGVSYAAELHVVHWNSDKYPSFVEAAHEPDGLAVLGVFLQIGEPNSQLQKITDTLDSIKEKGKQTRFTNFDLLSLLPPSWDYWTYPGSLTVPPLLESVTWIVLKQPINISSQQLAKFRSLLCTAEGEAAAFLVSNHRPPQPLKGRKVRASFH

NC(=Nc1ccc(S(N)(=O)=O)cc1)SCc1ccc(Cl)cc1 [8h, 4-Chlorobenzyl (4-sulphamoylphenyl)carbamimidothioate]
Ki [1]: 6680 nM
Ki [2]: 892 nM
Ki [3]: 34.4 nM
Ki [4]: 2 nM
Ki [5]: 73.2 nM

NC(=Nc1ccc(S(N)(=O)=O)cc1)SCc1ccc([N+](=O)[O-])cc1 [8k]
Ki [1]: 6850 nM
Ki [2]: 856 nM
Ki [3]: 9 nM
Ki [4]: 2.6 nM
Ki [5]: 77.2 nM

C#CCSC(N)=Nc1ccc(S(N)(=O)=O)cc1 [8f, Prop-2-yn-1-yl (4-sulphamoylphenyl)carbamimidothioate]
Ki [6]: 6.9 nM
Ki [1]: 7120 nM
Ki [2]: 352 nM
Ki [4]: 5.5 nM
Ki [5]: 92.5 nM

C=CCSC(N)=Nc1ccc(S(N)(=O)=O)cc1 [8e, Allyl (4-sulphamoylphenyl)carbamimidothioate]
Ki [7]: 38.5 nM
Ki [6]: 8.2 nM
Ki [1]: 4990 nM
Ki [8]: 1.8 nM
Ki [2]: 814 nM

CCCCCCCSC(N)=Nc1ccc(S(N)(=O)=O)cc1 [8d, Heptyl (4-sulphamoylphenyl)carbamimidothioate]
Ki [1]: 955 nM
Ki [2]: 926 nM
Ki [3]: 9.3 nM
Ki [4]: 2.7 nM
Ki [9]: 71.3 nM

CSC(N)=Nc1ccc(S(N)(=O)=O)cc1 [8a, Methyl (4-sulphamoylphenyl)carbamimidothioate]
Ki [10]: 97.5 nM
Ki [11]: 270 nM
Ki [3]: 85.8 nM
Ki [4]: 18.9 nM
Ki [5]: 90.4 nM

NC(=Nc1ccc(S(N)(=O)=O)cc1)SCc1ccc(C(F)(F)F)cc1 [8l, 4-(Trifluoromethyl)benzyl (4-sulphamoylphenyl)carbamimidothioate]
Ki [10]: 80.5 nM
Ki [1]: 5890 nM
Ki [3]: 8.9 nM
Ki [4]: 2.3 nM
Ki [5]: 73.5 nM
